This is an account of results in ChEMBL document CHEMBL1759953, “Antitumor agents 287. Substituted 4-amino-2H-pyran-2-one (APO) analogs reveal a new scaffold from neo-tanshinlactone with in vitro anticancer activity” (2011).

Holding throughout (format): functional
Experiment [1] relates to KB. In words: Cytotoxicity against human KB cells after 72 hrs by MTT assay. Particulars: read-out: ED50 (the source's name).
Experiment [2] deals with DU-145. The experiment is described as follows: Cytotoxicity against human DU145 cells after 72 hrs by MTT assay. The following applies: DU-145, 72 h, read-out: ED50 (the source's name). In general terms: Tetrazolium dyes change colour on reduction, which living cells bring about.
The test system of experiment [3] is A549. In words: Cytotoxicity against human A549 cells after 72 hrs by MTT assay. The following applies: A549, 72 h, read-out: ED50 (the source's name).
Experiment [4] can be described thus: Cytotoxicity against human KBVIN cells after 72 hrs by MTT assay. Particulars: read-out: ED50 (the source's name).
Experiment [5] concerns SK-BR-3. The experiment is described as follows: Cytotoxicity against human SKBR3 cells after 72 hrs by MTT assay. Particulars: SK-BR-3, 72 h, read-out: ED50 (the source's name).

For the compound `Nc1cc(=O)oc2c1ccc1ccccc12`, the EC50 in experiment [1] came to 170 nM; in experiment [2] it was 110 nM; in experiment [3] it was 110 nM; in experiment [4], 130 nM; in experiment [5], 130 nM.

`O=c1cc(NC2CCCCC2)cc(-c2ccccc2)o1`: the EC50 turned out to be 16000 nM in experiment [1]; 7470 nM in experiment [2]; 9690 nM in experiment [3]; 9150 nM in experiment [4]; 10900 nM in experiment [5].

Consider `O=c1cc(NC2CCCCC2)cc(/C=C/c2ccccc2)o1`, for which the EC50 stood at 2020 nM in experiment [1]; 1230 nM in experiment [2]; 1250 nM in experiment [3]; 1240 nM in experiment [4]; 1530 nM in experiment [5].

Turning to `COc1ccc(Nc2cc(C)oc(=O)c2)cc1`, the EC50 in experiment [1], in experiment [2], in experiment [3], in experiment [4] and in experiment [5] was > 30000 nM each time.

As for `COc1ccc(Nc2cc(C(C)C)oc(=O)c2)cc1`, the EC50 in experiment [1], in experiment [2], in experiment [3], in experiment [4] and in experiment [5] was > 30000 nM each time.

Consider `CCCCCc1cc(Nc2ccc(OC)cc2)cc(=O)o1`, for which the EC50 stood at 10100 nM in experiment [1]; 5940 nM in experiment [2]; 4420 nM in experiment [3]; 4840 nM in experiment [4]; 4930 nM in experiment [5].

In the case of `COc1ccc(Nc2cc(C3CCCC3)oc(=O)c2)cc1`, the EC50 was determined as 8380 nM in experiment [1]; 5420 nM in experiment [2]; 5420 nM in experiment [3]; 4980 nM in experiment [4]; 4730 nM in experiment [5].

In the case of `COc1ccc(Nc2cc(C3CCCCC3)oc(=O)c2)cc1`, the EC50 in experiment [1] is 8320 nM; in experiment [2], 8610 nM; in experiment [3], 4620 nM; in experiment [4] it was 4390 nM; in experiment [5], 5290 nM.

Turning to `COc1ccc(Nc2cc(-c3ccccc3)oc(=O)c2)cc1`, the EC50 in experiment [1] is 160 nM; in experiment [2], 120 nM; in experiment [3], 93 nM; in experiment [4], 98 nM; in experiment [5], 79 nM.

On to `COc1ccc(Nc2cc(/C=C/c3ccccc3)oc(=O)c2)cc1`, for which the EC50 in experiment [1] came out at 150 nM; in experiment [2], 110 nM; in experiment [3] it was 110 nM; in experiment [4], 100 nM; in experiment [5], 83 nM.

`COc1ccc(Nc2cc(Cc3ccccc3)oc(=O)c2)cc1`: the EC50 was 1600 nM in experiment [2], 1620 nM in experiment [3], 1300 nM in experiment [4] and 1340 nM in experiment [5].

For `COc1ccc(Nc2cc(-c3ccco3)oc(=O)c2)cc1`, the EC50 stood at 2660 nM in experiment [1]; 1950 nM in experiment [2]; 1910 nM in experiment [3]; 1460 nM in experiment [4]; 1760 nM in experiment [5].

As to `COc1ccc(Nc2cc(-c3ccc4ccccc4c3)oc(=O)c2)cc1`, the EC50 was determined as 180 nM in experiment [1]; 150 nM in experiment [2]; 150 nM in experiment [3]; 130 nM in experiment [4]; 130 nM in experiment [5].

In the case of `O=c1cc(NC2CC2)cc(-c2ccccc2)o1`, the EC50 in experiment [1], in experiment [2], in experiment [3], in experiment [4] and in experiment [5] was > 30000 nM each time.

Regarding `O=c1cc(N2CCCCC2)cc(-c2ccccc2)o1`, the EC50 in experiment [1], in experiment [2], in experiment [3], in experiment [4] and in experiment [5] was > 30000 nM throughout.

As to `O=c1cc(Nc2ccccc2)cc(-c2ccccc2)o1`, the EC50 in experiment [1] came out at 130 nM; in experiment [2], 98 nM; in experiment [3], 120 nM; in experiment [4] it was 150 nM; in experiment [5] it was 130 nM.

Regarding `Cc1ccc(Nc2cc(-c3ccccc3)oc(=O)c2)cc1`, the EC50 in experiment [1] is 64 nM; in experiment [2] it was 73 nM; in experiment [3], 67 nM; in experiment [4], 59 nM; in experiment [5], 90 nM.

Regarding `O=c1cc(Nc2ccc(Br)cc2)cc(-c2ccccc2)o1`, the EC50 is 320 nM in experiment [1]; 340 nM in experiment [2]; 310 nM in experiment [3]; 240 nM in experiment [4]; 400 nM in experiment [5].

As for `COc1ccccc1Nc1cc(-c2ccccc2)oc(=O)c1`, the EC50 in experiment [1] was determined as 350 nM; in experiment [2], 370 nM; in experiment [4], 490 nM; in experiment [5] it was 540 nM.

Regarding `COc1cccc(Nc2cc(-c3ccccc3)oc(=O)c2)c1`, the EC50 was 490 nM in experiment [1]; 660 nM in experiment [2]; 630 nM in experiment [3]; 550 nM in experiment [4]; 740 nM in experiment [5].
